# Data from the kinase profiling compilation of Christmann-Franck et al. (2016).
# Tests used:
# Assay in all cases: radiometric filter-binding kinase assay, Kinase HotSpot
# Conditions in all cases: compound 0.5 µM; ATP 10 µM
# CHEK2 (human) = CHEK2 (human) (UniProt O96017)
# TXK (human) = TXK (human) (UniProt P42681)
# MAP3K5 (human) = MAP3K5 (human) (UniProt Q99683)
# GRK5 (human) = GRK5 (human) (UniProt P34947)
# EPHA7 (human) = EPHA7 (human) (UniProt Q15375)
# VRK1 (human) = VRK1 (human) (UniProt Q99986)
# MARK2 (human) = MARK2 (human) (UniProt Q7KZI7)
# INSRR (human) = INSRR (human) (UniProt P14616)
# STK33 (human) = STK33 (human) (UniProt Q9BYT3)
# ADRBK1 (human) = ADRBK1 (human) (UniProt P25098)
# CSNK1G2 (human) = CSNK1G2 (human) (UniProt P78368)
# PRKX (human) = PRKX (human) (UniProt P51817)
# SRPK3 (human) = SRPK3 (human) (UniProt Q9UPE1)
# GRK7 (human) = GRK7 (human) (UniProt Q8WTQ7)
# EGFR (human) = EGFR (human) (UniProt P00533)
# BTK (human) = BTK (human) (UniProt Q06187)
# CAMKK1 (human) = CAMKK1 (human) (UniProt Q8N5S9)
# MAP3K14 (human) = MAP3K14 (human) (UniProt Q99558)
# MAP4K2 (human) = MAP4K2 (human) (UniProt Q12851)
# STK39 (human) = STK39 (human) (UniProt Q9UEW8)
# PHKG1 (human) = PHKG1 (human) (UniProt Q16816)
# BMX (human) = BMX (human) (UniProt P51813)
# LTK (human) = LTK (human) (UniProt P29376)
# DYRK2 (human) = DYRK2 (human) (UniProt Q92630)
# BRSK1 (human) = BRSK1 (human) (UniProt Q8TDC3)
# DDR2 (human) = DDR2 (human) (UniProt Q16832)
# TEK (human) = TEK (human) (UniProt Q02763)
# CDK1 CCNB1 (human) = CDK1 CCNB1 (human) (UniProt P06493+P14635)
# DYRK3 (human) = DYRK3 (human) (UniProt O43781)
# SRPK2 (human) = SRPK2 (human) (UniProt P78362)
# MAP2K1 (human) = MAP2K1 (human) (UniProt Q02750)
# DYRK4 (human) = DYRK4 (human) (UniProt Q9NR20)
# NEK2 (human) = NEK2 (human) (UniProt P51955)
# PRKCD (human) = PRKCD (human) (UniProt Q05655)
# PRKCB2 (human) = PRKCB2 (human) (UniProt P05771)
# EPHA1 (human) = EPHA1 (human) (UniProt P21709)
# PRKCZ (human) = PRKCZ (human) (UniProt Q05513)
# DAPK3 (human) = DAPK3 (human) (UniProt O43293)
# FRK (human) = FRK (human) (UniProt P42685)
# AXL (human) = AXL (human) (UniProt P30530)
# TXK (human), sequence (P42681 whole entry, looked up): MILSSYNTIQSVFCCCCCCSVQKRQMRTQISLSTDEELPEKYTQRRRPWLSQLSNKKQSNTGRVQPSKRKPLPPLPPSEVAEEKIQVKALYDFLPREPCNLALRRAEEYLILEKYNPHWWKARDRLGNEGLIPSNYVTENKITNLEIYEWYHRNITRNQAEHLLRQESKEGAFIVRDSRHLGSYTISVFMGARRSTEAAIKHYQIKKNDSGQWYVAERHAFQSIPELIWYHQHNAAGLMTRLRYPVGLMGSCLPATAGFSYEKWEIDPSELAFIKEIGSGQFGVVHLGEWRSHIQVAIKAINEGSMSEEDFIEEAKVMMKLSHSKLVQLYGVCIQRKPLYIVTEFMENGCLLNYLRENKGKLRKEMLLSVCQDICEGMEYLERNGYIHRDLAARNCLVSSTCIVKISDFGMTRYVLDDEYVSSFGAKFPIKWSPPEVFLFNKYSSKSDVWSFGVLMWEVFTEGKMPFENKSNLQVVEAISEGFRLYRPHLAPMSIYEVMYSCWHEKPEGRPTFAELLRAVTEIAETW
# LTK (human), sequence (P29376 whole entry, looked up): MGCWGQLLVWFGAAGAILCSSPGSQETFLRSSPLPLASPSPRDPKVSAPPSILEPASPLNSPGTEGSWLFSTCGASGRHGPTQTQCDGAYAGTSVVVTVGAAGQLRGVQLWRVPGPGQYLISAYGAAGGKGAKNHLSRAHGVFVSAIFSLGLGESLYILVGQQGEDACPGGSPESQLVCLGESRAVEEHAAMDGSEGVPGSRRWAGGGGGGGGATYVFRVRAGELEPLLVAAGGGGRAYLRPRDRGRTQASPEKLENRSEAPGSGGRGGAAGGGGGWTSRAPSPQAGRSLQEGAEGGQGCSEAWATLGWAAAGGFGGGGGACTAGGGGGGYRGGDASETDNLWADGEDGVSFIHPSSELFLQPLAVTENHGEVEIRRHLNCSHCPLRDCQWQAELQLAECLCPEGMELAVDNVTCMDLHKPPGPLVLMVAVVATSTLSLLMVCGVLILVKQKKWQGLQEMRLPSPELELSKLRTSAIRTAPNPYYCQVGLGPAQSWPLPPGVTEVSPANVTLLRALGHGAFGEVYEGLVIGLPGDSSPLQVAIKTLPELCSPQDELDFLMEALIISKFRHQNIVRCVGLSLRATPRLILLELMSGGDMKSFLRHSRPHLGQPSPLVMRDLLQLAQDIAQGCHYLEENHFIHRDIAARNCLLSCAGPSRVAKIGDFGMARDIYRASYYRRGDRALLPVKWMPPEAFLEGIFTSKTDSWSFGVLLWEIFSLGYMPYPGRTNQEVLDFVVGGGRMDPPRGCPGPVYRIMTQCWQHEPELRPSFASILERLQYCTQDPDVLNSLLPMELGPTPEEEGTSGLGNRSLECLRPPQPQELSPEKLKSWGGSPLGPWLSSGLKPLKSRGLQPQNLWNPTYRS
# BRSK1 (human), sequence (Q8TDC3 whole entry, looked up): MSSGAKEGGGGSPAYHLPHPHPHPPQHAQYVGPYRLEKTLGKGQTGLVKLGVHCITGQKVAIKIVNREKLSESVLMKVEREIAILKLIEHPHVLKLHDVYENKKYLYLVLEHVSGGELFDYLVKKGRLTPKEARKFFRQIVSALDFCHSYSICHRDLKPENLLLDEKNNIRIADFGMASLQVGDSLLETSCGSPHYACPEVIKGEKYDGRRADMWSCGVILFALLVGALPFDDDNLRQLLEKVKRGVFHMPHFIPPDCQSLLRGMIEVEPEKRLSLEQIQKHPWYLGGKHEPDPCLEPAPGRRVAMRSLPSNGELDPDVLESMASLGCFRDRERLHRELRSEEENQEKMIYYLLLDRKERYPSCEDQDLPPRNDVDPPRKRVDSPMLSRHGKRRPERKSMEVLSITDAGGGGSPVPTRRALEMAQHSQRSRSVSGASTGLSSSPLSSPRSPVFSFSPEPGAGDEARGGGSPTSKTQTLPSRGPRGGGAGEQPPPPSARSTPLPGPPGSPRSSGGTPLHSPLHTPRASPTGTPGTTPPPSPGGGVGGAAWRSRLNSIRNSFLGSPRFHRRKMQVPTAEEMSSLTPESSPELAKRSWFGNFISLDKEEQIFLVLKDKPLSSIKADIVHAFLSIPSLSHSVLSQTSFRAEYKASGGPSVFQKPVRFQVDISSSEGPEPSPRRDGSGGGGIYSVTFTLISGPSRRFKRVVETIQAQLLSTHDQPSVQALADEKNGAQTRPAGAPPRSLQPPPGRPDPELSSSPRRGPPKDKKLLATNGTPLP
# MAP3K14 (human), sequence (Q99558 whole entry, looked up): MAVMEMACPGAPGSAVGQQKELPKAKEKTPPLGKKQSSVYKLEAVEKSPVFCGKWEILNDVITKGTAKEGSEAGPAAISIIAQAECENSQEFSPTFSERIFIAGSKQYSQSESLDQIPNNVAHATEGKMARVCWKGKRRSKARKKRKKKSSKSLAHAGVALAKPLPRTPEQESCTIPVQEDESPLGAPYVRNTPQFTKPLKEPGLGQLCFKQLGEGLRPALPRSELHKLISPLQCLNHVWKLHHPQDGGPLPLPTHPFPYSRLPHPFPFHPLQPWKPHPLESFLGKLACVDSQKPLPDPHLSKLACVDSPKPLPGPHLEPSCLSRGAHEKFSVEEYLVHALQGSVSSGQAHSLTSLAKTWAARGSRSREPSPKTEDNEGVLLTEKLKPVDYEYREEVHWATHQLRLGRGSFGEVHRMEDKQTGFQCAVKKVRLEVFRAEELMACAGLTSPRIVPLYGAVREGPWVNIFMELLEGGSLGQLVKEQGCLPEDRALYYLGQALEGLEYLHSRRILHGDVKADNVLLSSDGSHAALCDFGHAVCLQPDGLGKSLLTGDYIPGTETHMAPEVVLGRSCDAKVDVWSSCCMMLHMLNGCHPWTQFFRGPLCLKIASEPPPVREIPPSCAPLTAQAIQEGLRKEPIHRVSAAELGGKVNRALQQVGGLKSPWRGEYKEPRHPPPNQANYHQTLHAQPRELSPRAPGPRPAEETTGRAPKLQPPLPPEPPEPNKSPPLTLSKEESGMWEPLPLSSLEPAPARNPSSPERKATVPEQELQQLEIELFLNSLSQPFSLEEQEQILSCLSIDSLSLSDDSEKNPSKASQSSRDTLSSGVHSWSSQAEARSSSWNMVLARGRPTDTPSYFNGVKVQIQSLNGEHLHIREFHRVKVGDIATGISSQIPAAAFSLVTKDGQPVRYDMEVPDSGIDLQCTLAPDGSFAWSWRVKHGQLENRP
# PHKG1 (human), sequence (Q16816 whole entry, looked up): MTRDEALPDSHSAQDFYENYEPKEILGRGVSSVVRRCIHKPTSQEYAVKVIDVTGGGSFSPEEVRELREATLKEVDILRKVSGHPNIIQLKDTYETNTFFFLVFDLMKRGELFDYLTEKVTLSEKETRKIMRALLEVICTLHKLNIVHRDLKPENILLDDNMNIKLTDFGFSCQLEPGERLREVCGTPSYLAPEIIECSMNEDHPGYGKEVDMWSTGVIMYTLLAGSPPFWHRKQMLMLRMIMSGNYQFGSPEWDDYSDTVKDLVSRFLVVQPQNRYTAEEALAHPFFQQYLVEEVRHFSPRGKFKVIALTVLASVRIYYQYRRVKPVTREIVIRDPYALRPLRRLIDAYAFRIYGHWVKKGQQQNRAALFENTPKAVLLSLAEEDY
# EPHA1 (human), sequence (P21709 whole entry, looked up): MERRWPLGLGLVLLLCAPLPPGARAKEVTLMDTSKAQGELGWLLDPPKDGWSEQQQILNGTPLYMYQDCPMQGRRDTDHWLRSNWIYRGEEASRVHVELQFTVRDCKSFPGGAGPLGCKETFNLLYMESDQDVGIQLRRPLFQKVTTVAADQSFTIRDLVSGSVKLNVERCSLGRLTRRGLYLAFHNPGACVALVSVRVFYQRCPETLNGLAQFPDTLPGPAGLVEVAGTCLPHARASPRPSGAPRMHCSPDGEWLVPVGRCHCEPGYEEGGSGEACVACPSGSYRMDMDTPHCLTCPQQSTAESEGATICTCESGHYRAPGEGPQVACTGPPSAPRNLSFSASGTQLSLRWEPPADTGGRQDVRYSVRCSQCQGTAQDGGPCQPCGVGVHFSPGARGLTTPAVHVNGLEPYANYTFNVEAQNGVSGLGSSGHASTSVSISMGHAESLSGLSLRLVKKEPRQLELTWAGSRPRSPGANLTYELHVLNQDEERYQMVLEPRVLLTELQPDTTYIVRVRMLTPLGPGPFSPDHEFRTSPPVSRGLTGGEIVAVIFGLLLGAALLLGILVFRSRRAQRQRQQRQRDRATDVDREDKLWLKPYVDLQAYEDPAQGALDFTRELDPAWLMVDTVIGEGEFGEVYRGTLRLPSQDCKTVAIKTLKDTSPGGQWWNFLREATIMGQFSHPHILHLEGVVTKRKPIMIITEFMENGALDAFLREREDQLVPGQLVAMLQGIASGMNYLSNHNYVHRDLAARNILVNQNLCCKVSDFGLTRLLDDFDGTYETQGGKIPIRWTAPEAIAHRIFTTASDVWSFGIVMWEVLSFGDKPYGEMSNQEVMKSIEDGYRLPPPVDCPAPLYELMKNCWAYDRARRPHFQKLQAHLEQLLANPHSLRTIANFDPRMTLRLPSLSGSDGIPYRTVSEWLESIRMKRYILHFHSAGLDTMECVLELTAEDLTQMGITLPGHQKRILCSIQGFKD
# CHEK2 (human), sequence (O96017 whole entry, looked up): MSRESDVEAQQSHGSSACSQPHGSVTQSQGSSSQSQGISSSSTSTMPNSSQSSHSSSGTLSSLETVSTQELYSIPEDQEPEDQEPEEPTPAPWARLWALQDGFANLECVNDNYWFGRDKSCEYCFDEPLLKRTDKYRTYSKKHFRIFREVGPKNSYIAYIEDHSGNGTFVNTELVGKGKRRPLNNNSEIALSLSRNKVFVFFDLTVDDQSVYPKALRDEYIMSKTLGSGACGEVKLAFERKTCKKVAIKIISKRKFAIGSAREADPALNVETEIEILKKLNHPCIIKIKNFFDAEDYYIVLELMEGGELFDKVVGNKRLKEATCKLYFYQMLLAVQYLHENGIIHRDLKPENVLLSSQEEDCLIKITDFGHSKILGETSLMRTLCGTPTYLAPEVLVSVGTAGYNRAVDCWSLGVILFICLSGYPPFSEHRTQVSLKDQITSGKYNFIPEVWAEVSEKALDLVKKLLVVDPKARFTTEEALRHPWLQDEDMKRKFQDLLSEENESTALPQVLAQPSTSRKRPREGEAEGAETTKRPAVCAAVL
SMILES,residual activity (CHEK2 (human)) [%],residual activity (TXK (human)) [%],residual activity (MAP3K5 (human)) [%],residual activity (GRK5 (human)) [%],residual activity (EPHA7 (human)) [%],residual activity (VRK1 (human)) [%],residual activity (MARK2 (human)) [%],residual activity (INSRR (human)) [%],residual activity (STK33 (human)) [%],residual activity (ADRBK1 (human)) [%],residual activity (CSNK1G2 (human)) [%],residual activity (PRKX (human)) [%],residual activity (SRPK3 (human)) [%],residual activity (GRK7 (human)) [%],residual activity (EGFR (human)) [%],residual activity (BTK (human)) [%],residual activity (CAMKK1 (human)) [%],residual activity (MAP3K14 (human)) [%],residual activity (MAP4K2 (human)) [%],residual activity (STK39 (human)) [%],other results
CC(=O)c1ccc(N2CCOCC2)cc1O,104,103,99.4,108,95.5,98.1,107,96.7,109,99,102,105,104,100,97.4,108,124,82.6,116,90.9,residual activity (PHKG1 (human)): 96.5%; residual activity (BMX (human)): 90.6%; residual activity (LTK (human)): 102%; residual activity (DYRK2 (human)): 101%; residual activity (BRSK1 (human)): 97.6%; residual activity (DDR2 (human)): 104%; residual activity (TEK (human)): 101%; residual activity (CDK1 CCNB1 (human)): 86.8%; residual activity (DYRK3 (human)): 93.9%; residual activity (SRPK2 (human)): 98.6%; residual activity (MAP2K1 (human)): 95.2%; residual activity (DYRK4 (human)): 95.6%; residual activity (NEK2 (human)): 81.3%; residual activity (PRKCD (human)): 97.4%; residual activity (PRKCB2 (human)): 97.9%; residual activity (EPHA1 (human)): 94%; residual activity (PRKCZ (human)): 111%; residual activity (DAPK3 (human)): 98.1%; residual activity (FRK (human)): 91.6%; residual activity (AXL (human)): 96.3%
CCN(CC)C(=O)c1ccc(Nc2nc(OCC3CCCCC3)c3nc[nH]c3n2)cc1,71.3,46,96.9,98.8,72.8,93.1,75.3,80.8,67.2,92.6,59.8,93.4,68.1,103,88.5,37.1,96.8,132,59.7,91.5,residual activity (PHKG1 (human)): 85.9%; residual activity (BMX (human)): 42.9%; residual activity (LTK (human)): 66.1%; residual activity (DYRK2 (human)): 98.2%; residual activity (BRSK1 (human)): 84%; residual activity (DDR2 (human)): 109%; residual activity (TEK (human)): 95.4%; residual activity (CDK1 CCNB1 (human)): 62.4%; residual activity (DYRK3 (human)): 97.6%; residual activity (SRPK2 (human)): 87.8%; residual activity (MAP2K1 (human)): 94.1%; residual activity (DYRK4 (human)): 93.6%; residual activity (NEK2 (human)): 91.4%; residual activity (PRKCD (human)): 76.7%; residual activity (PRKCB2 (human)): 95%; residual activity (EPHA1 (human)): 90.2%; residual activity (PRKCZ (human)): 95.8%; residual activity (DAPK3 (human)): 98.4%; residual activity (FRK (human)): 116%; residual activity (AXL (human)): 80.8%
O=c1cc(N2CCOCC2)oc2c1ccc1ccccc12,104,98.9,98.2,106,98.6,93.3,101,97.4,97.5,98.9,102,96.6,105,107,96.2,112,112,81.2,118,95.7,residual activity (PHKG1 (human)): 98.2%; residual activity (BMX (human)): 92.7%; residual activity (LTK (human)): 101%; residual activity (DYRK2 (human)): 88.9%; residual activity (BRSK1 (human)): 100%; residual activity (DDR2 (human)): 105%; residual activity (TEK (human)): 94.4%; residual activity (CDK1 CCNB1 (human)): 85.5%; residual activity (DYRK3 (human)): 96%; residual activity (SRPK2 (human)): 100%; residual activity (MAP2K1 (human)): 99.3%; residual activity (DYRK4 (human)): 91.9%; residual activity (NEK2 (human)): 94.8%; residual activity (PRKCD (human)): 95.1%; residual activity (PRKCB2 (human)): 99.9%; residual activity (EPHA1 (human)): 94.2%; residual activity (PRKCZ (human)): 106%; residual activity (DAPK3 (human)): 94.6%; residual activity (FRK (human)): 98.8%; residual activity (AXL (human)): 98.1%
Nc1cccc(-c2cc3c(Oc4cccc(O)c4)ncnc3[nH]2)c1,75.8,24.5,94.9,128,77.2,81.6,79,96.3,80.3,108,84.9,114,101,102,7.89,33.6,113,69.6,55.5,119,residual activity (PHKG1 (human)): 81.5%; residual activity (BMX (human)): 24.3%; residual activity (LTK (human)): 16.8%; residual activity (DYRK2 (human)): 76.9%; residual activity (BRSK1 (human)): 83.1%; residual activity (DDR2 (human)): 29.3%; residual activity (TEK (human)): 60.7%; residual activity (CDK1 CCNB1 (human)): 98.9%; residual activity (DYRK3 (human)): 89.8%; residual activity (SRPK2 (human)): 99.1%; residual activity (MAP2K1 (human)): 76.3%; residual activity (DYRK4 (human)): 101%; residual activity (NEK2 (human)): 98%; residual activity (PRKCD (human)): 95.7%; residual activity (PRKCB2 (human)): 97.5%; residual activity (EPHA1 (human)): 31.2%; residual activity (PRKCZ (human)): 94%; residual activity (DAPK3 (human)): 94%; residual activity (FRK (human)): 6.95%; residual activity (AXL (human)): 75.9%
O=C(Nc1cccc(Nc2nccc(Nc3cccc(C(F)(F)F)c3)n2)c1)C1CC1,107,90.2,111,104,112,88.2,97,89.9,81.5,84.7,101,94.6,101,101,87.6,83.7,97.9,109,112,94.1,residual activity (PHKG1 (human)): 98.3%; residual activity (BMX (human)): 83.6%; residual activity (LTK (human)): 104%; residual activity (DYRK2 (human)): 106%; residual activity (BRSK1 (human)): 97.1%; residual activity (DDR2 (human)): 81.7%; residual activity (TEK (human)): 101%; residual activity (CDK1 CCNB1 (human)): 89.3%; residual activity (DYRK3 (human)): 101%; residual activity (SRPK2 (human)): 104%; residual activity (MAP2K1 (human)): 98%; residual activity (DYRK4 (human)): 107%; residual activity (NEK2 (human)): 95.3%; residual activity (PRKCD (human)): 87.9%; residual activity (PRKCB2 (human)): 98%; residual activity (EPHA1 (human)): 81.8%; residual activity (PRKCZ (human)): 98.8%; residual activity (DAPK3 (human)): 94.3%; residual activity (FRK (human)): 92.2%; residual activity (AXL (human)): 104%
